The term melting point denotes the temperature, or range, at which the solid turns liquid.

In turn, `CCSCCn1c(=N)sc2cc(C(F)(F)C(F)(F)F)ccc21` displayed a melting point below 50 °C.

The compound `O=C(O)c1ncn2c(C(F)F)cc(-c3ccc(C(F)(F)F)cc3)nc12` returned a melting point of 238 °C.

`Cc1nc(-c2ccc(C(F)(F)F)cc2)oc1COc1ccc(OCC(=O)O)cc1`: the melting point lay within 136 to 138 °C. As to `COP(=O)(O)CC(C)=CC(N)C(=O)O` (stereo not given), the melting point lay in the range of 149 to 150 °C. For the compound `O=C(Nc1ccc(O)cc1)c1cc(O)cc(O)c1`, the melting point is 266 °C. To `O=C1CCC2CCCC(CCC(=O)OCc3ccccc3)C2N1` (stereo not given) belongs 101 to 102 °C. Take `CCCCn1c(=O)c2c(Cl)cc(Cl)cc2n(Cc2ccccc2)c1=O`: the melting point is 101 to 109 °C. To `CC1(C)OCC(CNc2c([N+](=O)[O-])cnc3cc(OCc4ccccc4)ccc23)O1` (stereo not given) belongs 154 to 155 °C.

Compound `COCCOc1cc2c(Nc3cc(OC)c(Cl)cc3Cl)c(C#N)cnc2cc1OCC1CCN(C)CC1` yielded a melting point of 153 to 155 °C. In the case of `O=C(Cc1ccccc1)NC1SCCN1Cc1ccc(Cl)nc1` (stereo not given), the melting point lay within 157 to 158 °C. In turn, `CCn1nc(C)c([N+](=O)[O-])c1C(N)=O` came in with a melting point of 175 to 177 °C. As to `CSc1cccc(Oc2ncc(F)cc2C(=O)N[C@H]2CC[C@@H](CO)CC2)c1`, the melting point was in the range of 123 to 126 °C. The compound `Nc1cccc(Oc2cnc3cc(Cl)ccc3n2)c1` registered a melting point of 119 to 120 °C.

As for `O=C(N[C@@H](Cc1ccccc1)[C@@H](O)[C@H](O)[C@H](Cc1ccccc1)NC(=O)OCc1ccccc1)OCc1ccccc1`, the melting point fell in the range of 215 to 216 °C.

Consider `CCOc1csc2c(=O)c(C(N)=O)cn(C)c12`, for which the melting point fell in the range of 286 to 287 °C.

In turn, `COc1cc2c(c(Cl)c1Cl)C(=O)C(C)(CC1CCCC1)C2` (stereo not given) displayed a melting point of 75 to 77 °C. To `N#Cc1cc(F)c(Sc2nc[nH]n2)cc1F` belongs 185 °C.

Consider `CC(C)CSc1nc2c(cc1C#N)C(=O)CC(C)(C)C2`, for which the melting point lay in the range of 75 to 76 °C. Compound `Cn1c(C(=O)OCc2ccccc2)c(-c2ccc(F)cc2)c2cccnc2c1=O` had a melting point of 217 to 218 °C.

As to `CCOC(=O)N1CCN(C(c2ccccc2)c2ccccc2)CC1(C)Cc1ccc2c(c1)OCCO2` (stereo not given), the melting point was 153 to 155 °C.

As for `CC(C)=NNC(=O)c1ccc(-c2ccc(Cl)cc2)o1`, the melting point was in the range of 167 to 169 °C. To `CNC(=O)[C@@H](C[C@H](O)[C@H](CC1CCCCC1)NC(=O)OC(C)(C)C)C1(O)CCCCC1` belongs 175 to 177 °C. To `CN(C)C=NS(=O)(=O)c1cc2cnc(C=O)cc2o1` belongs 186 to 188 °C.

Turning to `O=[N+]([O-])c1ccc(CCc2nnco2)cc1`, the melting point fell in the range of 93 to 94 °C.

Take `CCCN=C(N)Nc1ccnc(S(C)=O)n1` (stereo not given): the melting point was in the range of 179 to 180 °C. To `CC[Si](CC)(CC)Oc1cccc2ncc3c(c12)CCCC3` belongs 110 to 111 °C; to `COc1ccc(C2(C)C(=O)c3c(N4CCN(C)CC4)cc(Cl)cc3N(Cc3cccc(N)c3)C2=O)cc1` (stereo not given), 90 to 93 °C; to `COc1ccc(C(=O)Cc2cccs2)cc1`, 44 to 45.5 °C.

With `Cn1ncc(C(=O)N2CC(F)C2)c1C(=O)Nc1ccn2nc(-c3cccnc3)nc2c1`, the melting point is 247 to 249 °C.

Compound `CC(C)=CCN1Cc2c(Cl)ccc3[nH]c(=S)n(c23)C[C@@H]1C` yielded a melting point of 160 °C.

`Cn1cc2c(c1)-c1ccc(Cl)cc1C(c1ccccc1F)=NC2` returned a melting point of 142 to 144 °C. For the compound `N#CC(c1ccccc1)C1CCN(c2ccc([N+](=O)[O-])cc2)CC1` (stereo not given), the melting point is 118 °C.

`CCOC(=O)c1cc(-c2ccc(OCc3cccnc3)cc2O[C@H](CCC(=O)O)c2ccccc2C)n[nH]1`: the melting point was 108 to 110 °C. To `O=C(O)c1ccc2c(c1)nc(-c1ccc(Oc3cccc(Br)c3)cc1)n2C1CCCCC1` belongs 255 to 256 °C; to `CN(CC(C)(C)NCc1c(CO)ccc(OCc2ccccc2)c1CO)c1ccccc1`, 93 to 98 °C; to `NC(=O)c1cc(O)ccc1Cl`, 159 to 161 °C. To `COc1cc(C)nc(N=C=S)n1` belongs 54 to 55 °C. To `CC1CN(C)Cc2cc(-c3ccccc3)n(Cc3ccccc3)c21` (stereo not given) belongs 90 to 91 °C; to `N#CNc1ccccc1-c1ccccc1F`, 68 to 69 °C. As for `Cc1c(C(=O)NC2CCCCC2)nc(-c2ccccc2Cl)n1-c1ccc([N+](=O)[O-])cc1`, the melting point is 217 to 220 °C. To `O=C(O)c1cc(NCc2ccccc2)ccc1O` belongs 174 °C; to `CC=CC(=O)Nc1n[nH]c2ccc(C(F)(F)F)cc12`, 242 °C; to `O=C(c1ccccc1)C(O)C1OC(n2cnc3c(NC4CCCc5ccccc54)ncnc32)C(O)C1O` (stereo not given), 107 to 112 °C. `O=c1nc(-c2ccccn2)sc2cc(C(F)(F)F)ccc12` returned a melting point of 176 to 177 °C.

`COC[C@@H]1CCCN1S(=O)(=O)c1ccc(Cl)c(COc2cccc3c(-n4cccn4)cc(C)nc23)c1Cl` yielded a melting point of 75 °C. `C=CCN(CC=C)c1nc(N)n2oc(=O)nc2n1` displayed a melting point of 211 to 213 °C. To `O=C(C=Cc1ccc(Cl)cc1)C=Cc1ccc(Cl)cc1` belongs 187 to 189 °C.

The compound `CC(=O)NNc1ccc(N=C=S)cc1` returned a melting point of 172 to 174 °C.

As to `CN1CCN(CNc2nc(=O)n(CN3CCN(C)CC3)cc2F)CC1`, the melting point lay in the range of 165 to 166 °C.

For `CC(=O)OC1CSC(Oc2ccccc2C(C)=O)C(OC(C)=O)C1OC(C)=O` (stereo not given), the melting point came out at 112 °C. The compound `COC(=O)C(C)(C)c1ccc(C(=O)Nc2cn3cc(Cl)ccc3n2)cc1` came in with a melting point of 245 to 246 °C.

With `COc1ccc(S(=O)(=O)N2C(=O)C(N)(c3ccccc3OC)c3cc(Cl)ccc32)c(OC)c1` (stereo not given), the melting point was in the range of 172 to 173 °C. To `CSC1=NC=CC(NN)(SC)N1` (stereo not given) belongs 120 to 125 °C. To `O=C(O)CCc1conc1-c1ccc(F)c(Cl)c1` belongs 140 to 141 °C. To `CCC(C)C(=O)c1cn(C)cc(-c2cccc(C(F)(F)F)c2)c1=O` (stereo not given) belongs 109 to 111 °C; to `CCC(C(=O)O)(c1ccc(OCc2ccc3ccccc3n2)cc1)c1ccc(OCc2ccc3ccccc3n2)cc1`, 83 to 92 °C; to `CCCOc1ccccc1-c1nc(NCCO)cc(=O)[nH]1`, 164 to 166 °C. In the case of `CNc1ncc2c(-c3cccc(Cl)c3)cc(-c3cccc(CC(=O)O)c3)c(OC)c2n1`, the melting point lay within 258 to 261 °C.

`COC1=CC(=O)OC1C(O)c1ccccc1C(F)(F)F` (stereo not given): the melting point was 126 to 128 °C.

In turn, `CC(C)(C)COC1CCC(=O)N1` (stereo not given) had a melting point of 45 °C. To `C=C1C[C@@H](O)[C@H](/C=C/[C@@H](O)CCCCC)[C@H]1Cc1cccc(OCc2ccccc2)c1` belongs 58 °C; to `COc1ccc(-c2ccc3ccc(NC(=O)c4ccc(C(F)(F)F)cc4)nc3n2)cc1`, 148 °C. `COc1ccc(S(=O)(=O)NCCc2ccc(CC(=O)O)cc2)cc1` returned a melting point of 160 to 162 °C. Turning to `FC(F)(F)c1ccccc1N=C1CCc2cc3c(nc21)C(=Nc1ccccc1C(F)(F)F)CC3`, the melting point was above 350 °C. To `CC(O)CC1NCc2ccsc2-n2cccc21` (stereo not given) belongs 130 °C; to `S=c1[nH]ccn1Cc1ccco1`, 106 to 108 °C. To `Cc1cc2c(c(C)c1C)C(c1ccc(C(C)C)cc1)CO2` (stereo not given) belongs 70 to 71 °C; to `Cc1c2c(nc3ccccc13)CCN(C(N)=S)CC2`, 218 °C; to `CCCNC(=O)Nc1ccc(C(=O)OC)c(NC(=O)NC(C)C)c1`, 94 to 95 °C. To `CCOC(=O)c1cn(CCC(C)C)c2nn(C)cc2c1=O` belongs 105 to 106 °C. Regarding `Nc1ncc(-c2cc(C(F)(F)F)cc(C(F)(F)F)c2)nc1C(=O)Nc1cccnc1`, the melting point fell in the range of 220 to 222 °C. To `CON1C(=O)CC2(CCN(CNC(=O)c3ccccc3O)CC2)C1=O` belongs 96 to 99 °C; to `CC(C(=O)O)c1ccc2nc(-c3ccc(Cl)cc3)oc2c1` (stereo not given), 188 to 191 °C; to `O=C(O)C1Cc2c(ccc3c(=O)c4c(Cl)cccc4oc23)O1` (stereo not given), 283 to 286 °C. To `CCOC(=O)c1scc2c1CN(C)C(=O)c1cncn1-2` belongs 208 °C; to `CCOC(=O)C(=CNc1cc(OCc2ccccc2)c(OCc2ccccc2)cn1)C(=O)OCC`, 117 °C. `CCC(CC)c1cccc2nc(C(O)c3c(C)cc(C)cc3C)n(C)c12` (stereo not given) showed a melting point of 132 to 134 °C. `OCC1OC(n2c(Cl)nc3c(Cl)cc(Cl)cc32)C(O)C1O` (stereo not given) returned a melting point of 162 °C. To `COc1cc(NC(=O)N(O)C(C)C)cc(OC)c1OC` belongs 140 to 141 °C. `CNc1nc(-c2cccc(NC(=O)c3ccccn3)c2)c2cc(OC)c(OC)cc2n1` came in with a melting point of 175 to 177 °C. To `NC(=O)N(O)CC=Cc1cccc(F)c1Sc1ccc(Cl)cc1` belongs 125 to 127 °C; to `CC(C#CC1CC(Oc2ccc(C(F)(F)F)cc2)C1)N(O)C(N)=O` (single isomer, unassigned; (+)), 113 to 114 °C; to `CN(c1cc(OCCO)cc2cc(C3=NCC(CN4CCSCC4)S3)[nH]c12)S(=O)(=O)c1ccccn1` (stereo not given), 160 to 162 °C.

`CC(C)(C)c1cc(C=O)c2ccccc2c1O`: the melting point lay within 195 to 196 °C. To `C[C@H](O)Cn1ccc2cc(F)c(Cl)cc21` belongs 99 to 101 °C; to `CC(C)=C1OC(=O)N(c2ccc(Cl)cc2)C1=O`, 135 to 136 °C.

`Cc1ccc(-n2nc(C(C)(C)C)cc2NC(=O)Nc2ccc(OCCN3CCS(=O)CC3)c3ccccc23)cc1` showed a melting point of 205 to 207 °C. To `CSc1ccc2nc(NN)sc2c1` belongs 173 to 176 °C; to `CC(=NNc1ccccc1)c1ccc(O)cc1O`, 159 °C; to `COc1cc(C(=CN(C)C)C(C)=O)ccc1OCC(O)CN1CCN(c2ccccc2C)CC1` (stereo not given), 95 °C.

The values are drawn from a melting point compilation (Tetko et al.; mined from patent text by program, amines drawn as free bases though some values may be those of a salt).
